According to patent US6660759B1, “4.5-diaryloxazole compounds with prostaglandin I2 (PGI2) agonistic activity” (Fujisawa Pharmaceutical Co. Ltd., priority 1999, dated 2003):

System: Human platelet aggregation induced by ADP (platelet rich plasma)
Experiment: Inhibition of human platelet aggregation induced by ADP
Type: cell-based
Settings: human PRP; aggregation induced by ADP at final concentration of 2.5 μM; 37° C.
Protocol: Inhibition of Human Platelet Aggregation Induced by ADP
Human blood was obtained from healthy volunteers and mixed with 1/10 volume of 3.8% sodium citrate, pH 7.4. The citrate blood was centrifuged at 150×g for 10 minutes and the platelet rich plasma (PRP) was removed. The remaining blood was centrifuged for a further 10 minutes at 1500×g to prepare the platelet poor plasma (PPP), which was used as a reference for platelet aggregation. Aggregation studies were carried out using HEMATRACER 801 (NBS, Japan), a 8 channel aggregometer. The test compound solution (25 μl) and the PRP (225 μl) were mixed and stirred at 1000 rpm at 37° C. for 2 minutes. Aggregation was induced by ADP solution at the final concentration of 2.5 μM.

CCOC(=O)COc1cccc(CN2C[C@H](O)C[C@@H]2c2nc(-c3ccccc3)c(-c3ccccc3)o2)c1 [(1)]
IC50: < 100 nM
